System: cartilage defect model mice (knee joint articular cartilage defect)
Test: Efficacy of HMGB1 fragment peptide on articular cartilage defect in cartilage defect model mouse
Format: in vivo, C57BL/6J mice
Protocol: C57BL/6J mice (6-7 weeks old, male, wild type) were purchased from CLEA Japan, Inc., and then acclimated to animal facilities until they were 8 weeks old (weighing approximately 25 g at 8 weeks old). While the mice were under 1.5-2.0% (v/v) isoflurane inhalation anesthesia, shaving was performed on the lower extremity of the side to create a cartilage defect, and a longitudinal skin incision of approximately 1 cm was applied with scissors to the middle of the knee joint. An articular dissection of approximately 1 cm was performed under the microscope with a sharp blade (#11) in the parapatellar medial approach to dislocate the patella laterally. The femoral pulley was confirmed, and a 0.5×0.5×0.5 mm cartilage defect was created at the center of the pulley using a 0.5 mm diameter hand-turned drill (manufactured by MEISINGER USA, L.L.C.). Inside of the joint was washed with saline, then the articular capsule was continuously sutured with 8-0 vicryl to prevent patellar dislocation, and the skin was sutured with 5-0 nylon thread.
Cartilage defect model mice created as described above were divided into an HMGB1 peptide (1-44) administration group (n=16) and a control group (n=16). To the HMGB1 peptide (1-44) administration group, a solution of HMGB1 peptide (1-44) adjusted to a concentration of 1 μg/μL with saline as solvent was administered from the tail vein in an amount of 100 μL/mouse (4 mg/kg as the dose of peptide) immediately after the cartilage defect was created, and thereafter, the same dose was administered twice a week until 4 weeks after the cartilage defect was created (hereinafter also referred to simply as “post-operative”). To the control group, saline was administered from the tail vein in an amount of 100 μL to each mouse on the same schedule as in the HMGB1 peptide (1-44) administration group.
In both the HMGB1 peptide (1-44) administration group and the control group, four mice were sacrificed at each time point of 2, 4, 8 and 12 weeks post-operative, and the cartilage defect creation sites of knee joints were removed for microscopic observation and tissue staining. For microscopic observation, the status of cartilage tissue was evaluated by scoring the gross appearance according to the criteria shown in Table 1 below using the Wayne scoring system. In addition, sections of cartilage tissue were created for histological evaluation and subjected to safranin O staining, and the status of cartilage tissue was evaluated by calculating the Wakitani score from the tissue images according to the criteria shown in Table 2 below.

## HMGB1 peptide (1-44): Peptide consisting of amino acid residues 1-44 (SEQ ID NO: 1) of human-derived HMGB1 protein, chemically synthesized by a solid-phase method (MGKGDPKKPRGKMSSYAFFVQTCREEHKKKHPDASVNFSEFSKK)
4 mg/kg tail vein, twice a week until 4 weeks post-operative, observed at 2, 4, 8 and 12 weeks post-operative, vs control group (saline)
  Microscopic observation (gross appearance) of cartilage defect sites of knee joints: recovered to a state closer to normal than those of the control group
4 mg/kg tail vein, twice a week until 4 weeks, 2, 4, 8 and 12 weeks post-operative, FIGS. 3 and 5
  Safranin O staining of cartilage tissue sections (regeneration of defective cartilage tissue): defective cartilage tissue was fully regenerated
4 mg/kg tail vein, twice a week until 4 weeks, 2, 4, 8 and 12 weeks post-operative, vs control group, FIG. 2
  Wayne score (gross appearance): higher than the control group
4 mg/kg tail vein, twice a week until 4 weeks, 2, 4, 8 and 12 weeks post-operative, vs control group, FIGS. 4 and 6
  Wakitani score (histological evaluation): significantly lower compared to that of the control group
12 weeks post-operative, compared with cartilage of normal mice (FIG. 8, left)
  Safranin O staining response of knee joint cartilage tissues compared with normal mice: strong positive response similar to cartilage tissues of knee joints of normal mice
